ChEMBL document CHEMBL1201862, “PubChem BioAssay data set” (2004)
Where “and” joins values, the source holds several entries; their conditions need not be identical. Equal values may be shown once. Calls of active or inactive are those of the source.

Key:
[1] = target: Beta-2 adrenergic receptor (Homo sapiens, UniProt P07550); assay: beta2AR agonists driving receptor internalization, dose response, cell-based, FAP fluorogen, flow cytometry, cherry pick 1 (AID 588763); type: functional
[2] = cytotoxicity in HEK-293T cells, dose response, cytotoxicity control for BCR NF-kB inhibitor project, luminescence, B-cell screen hits (AID 489021); type: functional, cell-based;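 also: HEK-293T cells carrying an NF-kB luciferase reporter; cells exposed to compound for about 14 hours before viability readout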
[3] = tested on: Jurkat; assay: SAR Analysis of small molecule inhibitors of T-cell specific antigen receptor-induced NF-kB activation in a Jurkat cell line using a luminescence assay - Set 2. [Related pubchem assays (depositor defined):AID435003, AID435012, AID465]; type: functional, cell-based; conditions: Homo sapiens
[4] = tested on: HEK293; assay: cytotoxicity in HEK293T NF-kB-Luc cells, SAR follow-up, cytotoxicity control for NF-kB activator project, cell-based, resazurin fluorescence (AID 493251); type: functional; conditions: Homo sapiens
[5] = tested on: HEK293; assay: SAR Analysis of small molecule inhibitors of T-cell specific antigen receptor-induced NF-kB activation in a HEK-293T cell line using a luminescence assay - Set 2. [Related pubchem assays (depositor defined):AID435003, AID435012, AID489026]; type: functional, cell-based; conditions: Homo sapiens
[6] = target: Dual specificity protein kinase CLK1 (Homo sapiens, UniProt P49759); assay: CLK1 kinase inhibitors, off-target check, dose response, selectivity assay for Dyrk1A inhibitor project, biochemical, cherry-picked samples (AID 588811)
[7] = Vero cell cytotoxicity, dose response, cytotoxicity control for Vif-APOBEC3G degradation inhibitor project, Vero cells (AID 1117358); type: functional; conditions: Human immunodeficiency virus 1, Vero
[8] = target: Dual specificity tyrosine-phosphorylation-regulated kinase 1A (Rattus norvegicus, UniProt Q63470); type: biochemical, Homo sapiens
[9] = target: Mu-type opioid receptor (Homo sapiens, UniProt P35372); assay: (§1) Counterscreen for agonists of heterodimerization of the mu 1 (OPRM1) and delta 1 (OPRD1) opioid receptors: Luminescence-based cell-based high throughput dose response assay to identify agonists of OPRM1 homodimerization.; type: functional
[10] = target: Opioid receptors; mu & delta (Homo sapiens, UniProt P41143+P35372); assay: agonists of MOR-DOR heterodimerization, dose response, cell-based, luminescence (AID 588407); type: functional
[11] = target: 5-hydroxytryptamine receptor 5A (Homo sapiens, UniProt P47898); assay: Counterscreen for agonists of OPRM1-OPRD1 heterodimerization: luminescence-based cell-based high throughput dose response assay to identify agonists of 5-hydroxytryptamine (serotonin) 5A receptor (HTR5A). [Related pubchem assays (depositor defined):AID504326, AID504355, AID504692, AID504904, AID504905]; type: functional
[12] = target: Delta-type opioid receptor (Homo sapiens, UniProt P41143); assay: as §1, with “of OPRD1” for “of OPRM1”, “homodimerization. [Related pubchem assays (depositor defined):AID504326, AID504355, AID504692, AID504904, AID504905]” for “homodimerization.”; type: functional
[13] = target: Hexokinase-1 (Homo sapiens, UniProt P19367); assay: SAR analysis of small molecule inhibitors of hexokinase domain containing I (HKDC1) in the hexokinase 1 selectivity assay. [Related pubchem assays (depositor defined):AID493160, AID493190]; type: functional
[14] = target: T1, Hexokinase HKDC1 (Homo sapiens, UniProt Q2TB90); assay: SAR analysis of small molecule inhibitors of hexokinase domain containing I (HKDC1). [Related pubchem assays (depositor defined):AID493160, AID493190]; type: functional
T1 sequence (Q2TB90 whole entry): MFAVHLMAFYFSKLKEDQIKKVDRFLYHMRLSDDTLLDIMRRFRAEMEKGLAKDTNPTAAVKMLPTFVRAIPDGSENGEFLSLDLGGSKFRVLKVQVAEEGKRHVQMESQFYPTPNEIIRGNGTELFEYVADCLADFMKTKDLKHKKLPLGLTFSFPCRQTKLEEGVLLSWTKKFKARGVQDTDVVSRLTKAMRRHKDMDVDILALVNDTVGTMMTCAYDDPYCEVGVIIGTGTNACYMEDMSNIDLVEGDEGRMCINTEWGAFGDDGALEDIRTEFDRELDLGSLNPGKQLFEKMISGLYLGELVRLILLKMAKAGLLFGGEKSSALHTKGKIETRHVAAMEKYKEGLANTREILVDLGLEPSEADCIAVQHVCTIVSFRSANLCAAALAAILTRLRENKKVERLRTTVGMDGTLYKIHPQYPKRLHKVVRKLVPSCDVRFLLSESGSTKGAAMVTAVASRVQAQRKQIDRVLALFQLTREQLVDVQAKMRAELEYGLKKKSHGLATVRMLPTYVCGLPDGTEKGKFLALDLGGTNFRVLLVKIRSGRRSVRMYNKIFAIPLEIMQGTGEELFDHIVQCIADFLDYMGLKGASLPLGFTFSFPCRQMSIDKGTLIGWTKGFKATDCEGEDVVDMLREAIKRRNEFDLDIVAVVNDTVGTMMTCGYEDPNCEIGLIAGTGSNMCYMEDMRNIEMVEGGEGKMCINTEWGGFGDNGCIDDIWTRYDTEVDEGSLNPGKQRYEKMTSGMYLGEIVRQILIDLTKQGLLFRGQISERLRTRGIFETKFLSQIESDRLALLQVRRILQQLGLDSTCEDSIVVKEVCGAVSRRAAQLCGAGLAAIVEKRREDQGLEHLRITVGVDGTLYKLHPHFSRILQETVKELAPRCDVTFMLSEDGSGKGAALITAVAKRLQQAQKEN

[15] = tested on: Escherichia coli; assay: microbe, parasite or virus in culture
[16] = target: Glycogen synthase kinase-3 alpha (Homo sapiens, UniProt P49840); assay: Inhibition of Human GSK-3 alpha Activity Measured in Biochemical System Using Microfluidics - 2063-06_Inhibitor_Dose_DryPowder_Activity. [Related pubchem assays (depositor defined):AID2709]
[17] = target: Glycogen synthase kinase-3 beta (Homo sapiens, UniProt P49841); assay: Inhibition of Human GSK-3 beta Activity Measured in Biochemical System Using Microfluidics - 2063-05_Inhibitor_Dose_DryPowder_Activity. [Related pubchem assays (depositor defined):AID2709]
[18] = target: T2, Zinc finger protein mex-5 (Caenorhabditis elegans, UniProt Q9XUB2); assay: MEX-5/TCR-2 RNA interaction inhibitors, dose response, biochemical, C. elegans, fluorescence polarization (AID 1960)
T2 sequence (Q9XUB2 whole entry): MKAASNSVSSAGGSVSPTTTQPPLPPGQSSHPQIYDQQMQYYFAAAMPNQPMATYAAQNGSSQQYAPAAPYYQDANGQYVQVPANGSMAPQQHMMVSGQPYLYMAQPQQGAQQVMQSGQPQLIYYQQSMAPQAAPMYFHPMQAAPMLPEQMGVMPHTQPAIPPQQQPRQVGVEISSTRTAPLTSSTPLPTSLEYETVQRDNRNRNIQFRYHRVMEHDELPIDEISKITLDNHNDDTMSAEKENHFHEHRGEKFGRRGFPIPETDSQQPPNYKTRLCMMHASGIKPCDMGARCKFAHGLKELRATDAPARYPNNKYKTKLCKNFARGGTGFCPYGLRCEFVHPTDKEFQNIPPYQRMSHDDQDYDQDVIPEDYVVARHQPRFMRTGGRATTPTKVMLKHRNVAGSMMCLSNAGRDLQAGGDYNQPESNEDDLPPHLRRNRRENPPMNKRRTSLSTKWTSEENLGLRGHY

[19] = target: Long-chain-fatty-acid--AMP ligase FadD28 (Mycobacterium tuberculosis, UniProt P9WQ59); assay: Fluorescence polarization aasay to screen for inhibitors that compete for the binding of FadD28 to a bisubstrate Measured in Biochemical System Using Plate Reader - 2147-01_Inhibitor_Dose_CherryPick_Activity.; type: functional, Mycobacterium tuberculosis H37Rv
[20] = target: T3, RNA-binding protein pos-1 (Caenorhabditis elegans, UniProt G5EF15); assay: inhibitors of POS-1/mex-3 RNA binding, dose response, biochemical, fluorescence polarization (AID 1964);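 also: purified POS-1 fused to maltose binding protein made in E. coli; potency of compounds blocking POS-1 binding to fluorescent RNA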
T3 sequence (G5EF15 whole entry): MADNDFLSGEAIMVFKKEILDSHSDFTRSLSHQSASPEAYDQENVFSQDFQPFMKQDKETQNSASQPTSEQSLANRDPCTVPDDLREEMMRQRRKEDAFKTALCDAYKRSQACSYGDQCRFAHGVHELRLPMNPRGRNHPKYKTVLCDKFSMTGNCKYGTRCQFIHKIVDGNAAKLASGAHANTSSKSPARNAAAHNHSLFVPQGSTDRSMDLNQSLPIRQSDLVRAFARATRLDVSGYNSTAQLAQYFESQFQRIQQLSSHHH

[21] = target: T4, Apoptotic protease-activating factor 1 (Homo sapiens, UniProt O14727); type: functional
T4 sequence (O14727 whole entry): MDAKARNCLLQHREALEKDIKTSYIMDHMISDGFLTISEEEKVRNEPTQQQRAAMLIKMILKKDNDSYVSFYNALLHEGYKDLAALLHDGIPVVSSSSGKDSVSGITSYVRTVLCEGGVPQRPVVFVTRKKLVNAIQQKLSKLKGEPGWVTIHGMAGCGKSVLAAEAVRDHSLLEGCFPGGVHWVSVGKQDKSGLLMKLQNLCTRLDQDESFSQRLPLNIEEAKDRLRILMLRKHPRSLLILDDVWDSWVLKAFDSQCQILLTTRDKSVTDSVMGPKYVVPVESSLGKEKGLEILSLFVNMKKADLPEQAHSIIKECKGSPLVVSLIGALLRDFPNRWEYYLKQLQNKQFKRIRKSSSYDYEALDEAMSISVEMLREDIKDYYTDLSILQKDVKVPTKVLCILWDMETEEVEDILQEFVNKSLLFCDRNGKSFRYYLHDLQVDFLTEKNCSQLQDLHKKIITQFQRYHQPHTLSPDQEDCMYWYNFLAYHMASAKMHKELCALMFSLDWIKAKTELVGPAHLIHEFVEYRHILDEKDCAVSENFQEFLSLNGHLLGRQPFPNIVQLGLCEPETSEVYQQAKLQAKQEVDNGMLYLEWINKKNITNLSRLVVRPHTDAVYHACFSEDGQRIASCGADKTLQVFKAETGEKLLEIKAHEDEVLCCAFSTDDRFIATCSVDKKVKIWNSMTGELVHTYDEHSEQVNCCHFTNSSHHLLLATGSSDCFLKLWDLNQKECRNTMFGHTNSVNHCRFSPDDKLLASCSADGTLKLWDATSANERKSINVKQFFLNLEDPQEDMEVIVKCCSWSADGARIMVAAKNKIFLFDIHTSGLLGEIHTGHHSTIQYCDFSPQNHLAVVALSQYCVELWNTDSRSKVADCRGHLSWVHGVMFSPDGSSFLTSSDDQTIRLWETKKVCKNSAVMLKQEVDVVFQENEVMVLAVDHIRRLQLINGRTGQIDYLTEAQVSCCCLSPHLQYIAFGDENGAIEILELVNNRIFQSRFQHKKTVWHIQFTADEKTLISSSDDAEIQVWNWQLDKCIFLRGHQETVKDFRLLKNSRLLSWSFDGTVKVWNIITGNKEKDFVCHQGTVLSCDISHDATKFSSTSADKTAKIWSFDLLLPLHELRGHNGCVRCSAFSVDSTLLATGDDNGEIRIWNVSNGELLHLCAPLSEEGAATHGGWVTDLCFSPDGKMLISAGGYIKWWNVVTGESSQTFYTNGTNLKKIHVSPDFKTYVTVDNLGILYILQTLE

[22] = target: Beta-arrestin-1 (Homo sapiens, UniProt P49407); assay: inhibitors of arrestin peptide binding to AP2, dose response, biochemical, cherry pick 1, beta2-adaptin appendage, flow cytometry (AID 588783); type: functional
Sequence of Beta-arrestin-1 (P49407 whole entry): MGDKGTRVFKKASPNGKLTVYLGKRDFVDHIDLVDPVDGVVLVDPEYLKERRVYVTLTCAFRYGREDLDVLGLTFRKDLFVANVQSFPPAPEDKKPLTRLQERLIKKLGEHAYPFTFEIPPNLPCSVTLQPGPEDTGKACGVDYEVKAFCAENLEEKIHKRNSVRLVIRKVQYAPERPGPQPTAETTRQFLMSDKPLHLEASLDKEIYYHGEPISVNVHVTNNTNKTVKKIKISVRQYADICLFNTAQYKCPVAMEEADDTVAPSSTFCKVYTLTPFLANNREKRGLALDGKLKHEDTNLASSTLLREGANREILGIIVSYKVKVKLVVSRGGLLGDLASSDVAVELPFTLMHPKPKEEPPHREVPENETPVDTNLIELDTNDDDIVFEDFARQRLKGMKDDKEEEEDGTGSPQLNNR

Sequence of Beta-2 adrenergic receptor (P07550 whole entry): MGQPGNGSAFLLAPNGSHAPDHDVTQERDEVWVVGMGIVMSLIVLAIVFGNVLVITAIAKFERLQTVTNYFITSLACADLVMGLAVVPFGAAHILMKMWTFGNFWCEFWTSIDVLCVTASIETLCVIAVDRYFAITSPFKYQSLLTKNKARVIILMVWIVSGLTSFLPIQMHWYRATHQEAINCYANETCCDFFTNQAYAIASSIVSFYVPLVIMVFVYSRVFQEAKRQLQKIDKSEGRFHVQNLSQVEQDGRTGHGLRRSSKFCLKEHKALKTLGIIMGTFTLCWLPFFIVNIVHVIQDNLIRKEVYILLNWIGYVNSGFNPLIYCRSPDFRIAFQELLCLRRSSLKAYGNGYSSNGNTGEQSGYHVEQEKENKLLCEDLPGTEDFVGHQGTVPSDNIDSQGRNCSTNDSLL
Sequence of Dual specificity protein kinase CLK1 (P49759 whole entry): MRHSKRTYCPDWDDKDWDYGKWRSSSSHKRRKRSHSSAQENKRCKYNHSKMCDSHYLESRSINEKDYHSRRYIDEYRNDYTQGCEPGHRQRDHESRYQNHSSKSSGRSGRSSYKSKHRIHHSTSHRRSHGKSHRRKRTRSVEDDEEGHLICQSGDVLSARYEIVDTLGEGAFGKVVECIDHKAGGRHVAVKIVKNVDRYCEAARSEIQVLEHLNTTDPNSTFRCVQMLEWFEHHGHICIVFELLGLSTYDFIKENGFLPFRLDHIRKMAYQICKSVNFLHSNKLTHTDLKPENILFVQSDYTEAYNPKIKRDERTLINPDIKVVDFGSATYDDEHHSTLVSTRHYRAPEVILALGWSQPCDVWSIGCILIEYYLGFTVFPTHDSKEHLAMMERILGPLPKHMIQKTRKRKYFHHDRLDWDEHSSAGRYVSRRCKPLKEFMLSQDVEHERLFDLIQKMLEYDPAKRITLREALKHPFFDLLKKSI
Sequence of Hexokinase-1 (P19367 whole entry, the tested form may be a part): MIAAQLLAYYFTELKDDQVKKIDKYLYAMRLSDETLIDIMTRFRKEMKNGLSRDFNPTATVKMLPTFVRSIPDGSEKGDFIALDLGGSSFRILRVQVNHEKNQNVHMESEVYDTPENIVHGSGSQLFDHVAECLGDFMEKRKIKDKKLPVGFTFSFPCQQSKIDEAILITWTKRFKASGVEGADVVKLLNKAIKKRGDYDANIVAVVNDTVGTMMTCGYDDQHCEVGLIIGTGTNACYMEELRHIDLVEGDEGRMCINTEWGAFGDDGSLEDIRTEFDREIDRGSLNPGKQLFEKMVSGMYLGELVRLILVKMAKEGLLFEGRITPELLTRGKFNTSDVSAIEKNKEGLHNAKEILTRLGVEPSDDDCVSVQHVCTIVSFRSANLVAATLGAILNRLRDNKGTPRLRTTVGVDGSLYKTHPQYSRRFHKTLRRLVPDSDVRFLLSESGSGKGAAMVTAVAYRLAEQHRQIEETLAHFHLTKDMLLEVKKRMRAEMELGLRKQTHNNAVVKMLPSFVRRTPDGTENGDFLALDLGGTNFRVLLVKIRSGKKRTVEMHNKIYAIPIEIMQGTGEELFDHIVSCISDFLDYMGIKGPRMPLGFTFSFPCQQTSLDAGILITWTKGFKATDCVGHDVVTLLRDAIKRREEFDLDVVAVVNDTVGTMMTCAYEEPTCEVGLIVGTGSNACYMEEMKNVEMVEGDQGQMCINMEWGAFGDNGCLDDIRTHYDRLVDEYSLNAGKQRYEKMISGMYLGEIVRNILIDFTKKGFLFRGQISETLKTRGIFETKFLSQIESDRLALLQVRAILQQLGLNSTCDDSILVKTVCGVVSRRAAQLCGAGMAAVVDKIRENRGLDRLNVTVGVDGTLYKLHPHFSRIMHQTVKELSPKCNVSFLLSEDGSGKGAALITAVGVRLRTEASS
Sequence of 5-hydroxytryptamine receptor 5A (P47898 whole entry): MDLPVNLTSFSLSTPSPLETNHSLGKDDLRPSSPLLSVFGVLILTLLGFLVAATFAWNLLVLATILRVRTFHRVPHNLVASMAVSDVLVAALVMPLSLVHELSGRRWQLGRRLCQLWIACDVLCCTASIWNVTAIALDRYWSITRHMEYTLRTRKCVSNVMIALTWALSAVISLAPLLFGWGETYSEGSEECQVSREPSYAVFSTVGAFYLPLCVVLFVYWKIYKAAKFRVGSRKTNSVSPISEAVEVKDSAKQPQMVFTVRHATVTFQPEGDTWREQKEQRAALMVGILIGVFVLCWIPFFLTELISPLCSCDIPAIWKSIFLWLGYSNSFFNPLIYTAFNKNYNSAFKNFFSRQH
Sequence of Glycogen synthase kinase-3 alpha (P49840 whole entry): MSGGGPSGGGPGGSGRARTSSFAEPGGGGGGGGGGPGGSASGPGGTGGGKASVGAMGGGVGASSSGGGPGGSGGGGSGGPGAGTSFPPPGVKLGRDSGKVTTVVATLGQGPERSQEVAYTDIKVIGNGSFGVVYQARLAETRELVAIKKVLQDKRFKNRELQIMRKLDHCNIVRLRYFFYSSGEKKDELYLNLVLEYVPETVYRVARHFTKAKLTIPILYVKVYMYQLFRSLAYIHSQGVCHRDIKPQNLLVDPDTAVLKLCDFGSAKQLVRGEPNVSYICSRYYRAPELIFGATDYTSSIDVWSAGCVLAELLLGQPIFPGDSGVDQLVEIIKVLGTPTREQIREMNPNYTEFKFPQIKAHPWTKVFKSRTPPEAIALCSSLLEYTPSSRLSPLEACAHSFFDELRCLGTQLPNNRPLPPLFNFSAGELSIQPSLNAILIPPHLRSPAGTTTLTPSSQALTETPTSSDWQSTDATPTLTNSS
Sequence of Long-chain-fatty-acid--AMP ligase FadD28 (P9WQ59 whole entry, the tested form may be a part): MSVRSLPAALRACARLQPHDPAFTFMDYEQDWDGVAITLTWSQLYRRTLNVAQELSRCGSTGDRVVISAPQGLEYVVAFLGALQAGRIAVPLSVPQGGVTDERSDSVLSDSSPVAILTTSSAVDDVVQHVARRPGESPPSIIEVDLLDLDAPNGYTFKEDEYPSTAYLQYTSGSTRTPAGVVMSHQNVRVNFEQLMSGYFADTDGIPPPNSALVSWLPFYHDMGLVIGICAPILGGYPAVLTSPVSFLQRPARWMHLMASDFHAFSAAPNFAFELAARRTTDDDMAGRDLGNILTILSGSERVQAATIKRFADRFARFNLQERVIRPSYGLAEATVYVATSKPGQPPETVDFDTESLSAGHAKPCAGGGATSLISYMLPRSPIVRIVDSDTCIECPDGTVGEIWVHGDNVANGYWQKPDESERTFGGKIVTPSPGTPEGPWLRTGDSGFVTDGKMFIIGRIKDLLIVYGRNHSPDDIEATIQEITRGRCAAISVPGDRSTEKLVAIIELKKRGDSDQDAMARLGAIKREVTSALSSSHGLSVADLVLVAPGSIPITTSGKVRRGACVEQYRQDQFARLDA
Sequence of Glycogen synthase kinase-3 beta (P49841 whole entry): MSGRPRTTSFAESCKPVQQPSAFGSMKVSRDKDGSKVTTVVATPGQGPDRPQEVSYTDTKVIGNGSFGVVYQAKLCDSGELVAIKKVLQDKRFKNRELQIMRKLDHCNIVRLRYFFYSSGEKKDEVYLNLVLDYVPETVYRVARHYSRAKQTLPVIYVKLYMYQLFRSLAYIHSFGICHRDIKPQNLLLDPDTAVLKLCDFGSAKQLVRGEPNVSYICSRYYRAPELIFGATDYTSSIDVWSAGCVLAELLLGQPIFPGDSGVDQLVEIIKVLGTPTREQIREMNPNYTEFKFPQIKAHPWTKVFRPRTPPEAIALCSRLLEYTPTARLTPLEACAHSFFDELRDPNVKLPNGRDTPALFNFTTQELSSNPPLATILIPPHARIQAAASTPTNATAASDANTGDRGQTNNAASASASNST
Sequence of Mu-type opioid receptor (P35372 whole entry): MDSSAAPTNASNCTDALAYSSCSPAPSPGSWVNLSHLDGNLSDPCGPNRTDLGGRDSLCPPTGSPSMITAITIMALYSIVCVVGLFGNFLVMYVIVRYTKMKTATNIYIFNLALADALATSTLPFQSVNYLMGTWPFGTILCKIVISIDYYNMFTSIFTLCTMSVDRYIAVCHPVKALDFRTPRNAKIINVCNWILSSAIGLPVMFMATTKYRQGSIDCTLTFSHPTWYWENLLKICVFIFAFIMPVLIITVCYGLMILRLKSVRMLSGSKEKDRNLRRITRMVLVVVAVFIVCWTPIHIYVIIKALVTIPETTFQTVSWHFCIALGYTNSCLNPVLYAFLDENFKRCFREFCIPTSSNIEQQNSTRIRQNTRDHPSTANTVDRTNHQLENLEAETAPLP
Sequence of Delta-type opioid receptor (P41143 whole entry, the tested form may be a part): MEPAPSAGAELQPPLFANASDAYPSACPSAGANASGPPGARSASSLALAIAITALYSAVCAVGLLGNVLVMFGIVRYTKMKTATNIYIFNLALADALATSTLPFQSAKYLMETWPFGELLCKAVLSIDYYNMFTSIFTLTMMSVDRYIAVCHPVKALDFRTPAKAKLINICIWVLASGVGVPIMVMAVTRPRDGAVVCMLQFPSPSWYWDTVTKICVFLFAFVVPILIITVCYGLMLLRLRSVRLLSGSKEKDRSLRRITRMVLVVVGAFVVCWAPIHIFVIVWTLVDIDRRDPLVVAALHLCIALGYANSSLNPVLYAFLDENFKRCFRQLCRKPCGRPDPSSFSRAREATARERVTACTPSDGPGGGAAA

## CCOC(=O)c1ccc(NC(=O)Cn2nnc(-c3ccc(C)cc3)n2)cc1
[1]
  EC50: 158 nM (active) and 839 nM (active)

## COc1cc(-c2nc3n(n2)C(c2ccc(F)cc2)C2=C(O)CCCC2=N3)cc(OC)c1OC (configuration not stated)
[2]
  IC50: > 80 µM (inactive)
[3]
  IC50: > 79 µM (inactive)
[4]
  IC50: 39.1 µM (inactive)
[5]
  IC50: 31.4 µM (inactive)

## CN(C)S(=O)(=O)c1ccc(NC(=O)c2cc3ccccc3o2)cc1
[6]
  AC50: 21.1 µM (active)
[7]
  CC50: > 40 µM (active)
[8]
  AC50: 29.9 µM (active)

## Br.CC1[C@H]2Cc3ccc(O)cc3[C@]1(C)CCN2CCc1ccccc1 (some centres not stated)
[9]
  EC50: > 10.3 µM (inactive)
[10]
  EC50: > 0.01406 µM
[11]
  EC50: > 92.5 µM (inactive)
[12]
  EC50: 0.551 µM (active)

## O=c1c2ccccc2nc(/C=C/c2cccnc2)n1Cc1ccccc1F
[13]
  IC50: > 80 µM (inactive)
[14]
  IC50: > 80 µM (inactive)

## Cc1cc(C)n2nc(SCC(=O)N3CCN(c4ccccc4)CC3)nc2n1
[15]
  AC50: 106 µM (active)

## c1cncc(-c2nc(NCCCn3cccc3)c3ccccc3n2)c1
[16]
  AC50: 7.63 µM (active)
[17]
  AC50: 2.97 µM (active)

## Cc1cc2nc3ccc(N(C)C)cc3nc2cc1N
[18]
  EC50: 14.3 µM (active)
[19]
  AC50: 33.6 µM (active)
[20]
  EC50: 13 µM (active)
[21]
  IC50: 34 µM (active)
[22]
  IC50: 8.88 µM (active)
